Twelve molecules from paper PMC12948223, “HSP70 Interactome‐Mediated Proteolysis Targeting Chimera (HSP70‐PROTAC) for Ferroptosis‐Driven Cancer Treatment” (Advanced Science, 2025) can be followed below.

One assay has as its system HT1080 cells. Nature of the assay: Cell viability CCK-8 assay. Type of assay: cell-based, human. To be noted: Homo sapiens, HT-1080, CCK-8, 48 h, read-out: IC50 (cytotoxicity). As to the method: To determine whether GPX4 degradation following treatment with HSP70‐PROTACs triggers cancer cell ferroptosis, we initially assessed the viability of HT1080 cells using the CCK‐8 assay after treatment with various concentrations of the tested compounds for 48 h. GPX4 inhibitor ML162, HSP70 inhibitor apoptozole, and two GPX4 non‐degradable HSP70‐PROTAC molecules, GDAz‐Neg1 and GDAz‐Neg2, were selected as controls. […] This remarkable activity might partly be ascribed to the high cell permeability conferred by the piperazine ring. […] We speculated that the potent anti‐proliferative activity of GDAz‐Neg2 may be attributed to the GPX4 inhibition.
The compounds under investigation were initially dissolved in dimethyl sulfoxide (DMSO) to generate stock solutions with a concentration of 10 mM. HT1080 cells or other tested cells were seeded in 96‐well plates at a density of 3000–5000 cells well^−1 and cultured at 37 °C. Following a 24‐h incubation period, the tested compounds were added to the wells at various concentrations (the DMSO stock solutions of all the tested compounds were diluted with culture medium to obtain the designated concentration containing a final concentration of DMSO less than 0.5% (v/v)). The cells were then cultured for an additional 48 or 72 h. Cell Counting Kit 8 (CCK‐8) assay was conducted to examine the effects of the tested compounds on cell viability, and the absorbance was measured at a wavelength of 450 nm. The IC50 values were determined utilizing GraphPad Prism software through nonlinear regression analysis. All experiments were independently repeated at least three times.

The target in a further assay is T1, GPX4 (Homo sapiens, UniProt P36969).
T1 sequence (P36969 1-170 isoform P36969-2): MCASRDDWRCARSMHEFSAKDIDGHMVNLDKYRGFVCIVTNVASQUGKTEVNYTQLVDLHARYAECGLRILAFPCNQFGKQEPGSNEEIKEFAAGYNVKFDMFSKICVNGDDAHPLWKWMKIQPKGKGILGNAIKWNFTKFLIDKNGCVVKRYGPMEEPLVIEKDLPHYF
Nature of the assay: GPX4 degradation by western blot in HT1080 cells. Type of assay: cell-based. Set-up: determine the changes in the endogenous levels of GPX4 by western blot assay; endogenous in cells; host or cells: HT1080 fibrosarcoma cells, including siRNA-knockdown derivatives. As for the experimental part:
To evaluate the GPX4 degradation efficiency of the synthesized HSP70‐PROTACs GDAz‐1–14, we first selected ferroptosis‐sensitive HT1080 fibrosarcoma cells (highly‐expressing GPX4) treated with different concentrations (0.1, 0.3, 1, and 3 µM) of these chimeras to determine the changes in the endogenous levels of GPX4 by western blot assay after 24 h treatment. […] This finding underscores the crucial role of the linker in HSP70‐PROTAC‐mediated protein degradation. […] In the case of alkyl chain derivatives (GDAz‐6–10), elongating the length of the linker generally led to a decreased GPX4 degrading activity. […] Thus, GDAz‐3 was selected for further evaluation.
Cells were seeded at a density of 4 × 10^5 cells well^−1 in 6‐well plates and allowed to incubate overnight. Cells were incubated with the indicated treatments. Thereafter, the cells were collected and lysed with RIPA buffer containing serine protease and phosphatase inhibitors for 30 min on ice. Proteins were quantified by using a BCA protein assay kit (Beyotime). Subsequently, SDS‐PAGE sample loading buffer was added, and the mixture was heated in a 100 °C metal bath for 10 min to denature the proteins. Protein samples from each group were separated by SDS‐PAGE gel and transferred to a PVDF membrane. After blocking with 5% skim milk for 1 h at room temperature, primary antibodies (GPX4: abcam (#ab125066, 1:1000); Hsp70: abcam (#ab2787, 1:1000); CHIP: HUABIO (#ST7108, 1:1000); UpingBio Technology Co., Ltd. (BRD4, #YP‐Ab‐18034, 1:1000; BAG‐1, #YP‐Ab‐00575, 1:1000); GAPDH: Proteintech (#60004‐1‐Ig, 1:50 000)) were used and incubated at 4 °C overnight on a rotary shaker. After washing the membranes with TBST buffer five times, the membranes were incubated with a second antibody (Cell Signaling Technology, #7074S, 1:1000 and #7076S, 1:1000) at room temperature for 2 h. Ultimately, the membrane was washed five times, and the antibody‐protein complexes were visualized using an ECL luminescence reagent (Biosharp, Shanghai, China). The relative intensities of the bands were analyzed by ImageJ and normalized to a loading control.
In general terms: In western blotting, separated proteins are transferred to a membrane and probed.

Molecules are shown by their SMILES.

Turning to `COc1ccc(-c2nc(-c3cc(C(F)(F)F)cc(C(F)(F)F)c3)n(Cc3ccc(C(=O)NCCOCCn4cc(COc5ccc(N(C(=O)CCl)C(C(=O)NCCc6ccccc6)c6cccs6)cc5Cl)nn4)cc3)c2-c2ccc(OC)cc2)cc1` (stereo not drawn) [GDAz-1, 4-((2-(3,5-bis(trifluoromethyl)phenyl)-4,5-bis(4-methoxyphenyl)-1H-imidazol-1-yl)methyl)-N-(2-(2-(4-((2-chloro-4-(2-chloro-N-(2-oxo-2-(phenethylamino)-1-(thiophen-2-yl)ethyl)acetamido)phenoxy)methyl)-1H-1,2,3-triazol-1-yl)ethoxy)ethyl)benzamide], the IC50 in the assay with HT1080 cells stood at 21.7 ± 5.3 µM. Same read-out and setting: with `COc1ccc(-c2nc(-c3cc(C(F)(F)F)cc(C(F)(F)F)c3)n(Cc3ccc(C(=O)NCCOCCOCCn4cc(COc5ccc(N(C(=O)CCl)C(C(=O)NCCc6ccccc6)c6cccs6)cc5Cl)nn4)cc3)c2-c2ccc(OC)cc2)cc1` (stereo not drawn) [GDAz-2, 4-((2-(3,5-bis(trifluoromethyl)phenyl)-4,5-bis(4-methoxyphenyl)-1H-imidazol-1-yl)methyl)-N-(2-(2-(2-(4-((2-chloro-4-(2-chloro-N-(2-oxo-2-(phenethylamino)-1-(thiophen-2-yl)ethyl)acetamido)phenoxy)methyl)-1H-1,2,3-triazol-1-yl)ethoxy)ethoxy)ethyl)benzamide] the figure was 0.39 ± 0.11 µM; with `COc1ccc(-c2nc(-c3cc(C(F)(F)F)cc(C(F)(F)F)c3)n(Cc3ccc(C(=O)NCCOCCOCCOCCOCCn4cc(COc5ccc(N(C(=O)CCl)C(C(=O)NCCc6ccccc6)c6cccs6)cc5Cl)nn4)cc3)c2-c2ccc(OC)cc2)cc1` (stereo not drawn) [GDAz-4, 4-((2-(3,5-bis(trifluoromethyl)phenyl)-4,5-bis(4-methoxyphenyl)-1H-imidazol-1-yl)methyl)-N-(14-(4-((2-chloro-4-(2-chloro-N-(2-oxo-2-(phenethylamino)-1-(thiophen-2-yl)ethyl)acetamido)phenoxy)methyl)-1H-1,2,3-triazol-1-yl)-3,6,9,12-tetraoxatetradecyl)benzamide], 0.39 ± 0.08 µM. Take `COc1ccc(-c2nc(-c3cc(C(F)(F)F)cc(C(F)(F)F)c3)n(Cc3ccc(C(=O)NCCOCCOCCOCCOCCOCCn4cc(COc5ccc(N(C(=O)CCl)C(C(=O)NCCc6ccccc6)c6cccs6)cc5Cl)nn4)cc3)c2-c2ccc(OC)cc2)cc1` (stereo not drawn) [GDAz-5, 4-((2-(3,5-bis(trifluoromethyl)phenyl)-4,5-bis(4-methoxyphenyl)-1H-imidazol-1-yl)methyl)-N-(17-(4-((2-chloro-4-(2-chloro-N-(2-oxo-2-(phenethylamino)-1-(thiophen-2-yl)ethyl)acetamido)phenoxy)methyl)-1H-1,2,3-triazol-1-yl)-3,6,9,12,15-pentaoxaheptadecyl)benzamide]: the IC50 in the assay with HT1080 cells was 0.21 ± 0.03 µM. Same read-out and setting: with `COc1ccc(-c2nc(-c3cc(C(F)(F)F)cc(C(F)(F)F)c3)n(Cc3ccc(C(=O)NCCNC(=O)Cn4cc(COc5ccc(N(C(=O)CCl)C(C(=O)NCCc6ccccc6)c6cccs6)cc5Cl)nn4)cc3)c2-c2ccc(OC)cc2)cc1` (stereo not drawn) [GDAz-6, 4-((2-(3,5-bis(trifluoromethyl)phenyl)-4,5-bis(4-methoxyphenyl)-1H-imidazol-1-yl)methyl)-N-(2-(2-(4-((2-chloro-4-(2-chloro-N-(2-oxo-2-(phenethylamino)-1-(thiophen-2-yl)ethyl)acetamido)phenoxy)methyl)-1H-1,2,3-triazol-1-yl)acetamido)ethyl)benzamide] the figure was 0.35 ± 0.08 µM; with `COc1ccc(-c2nc(-c3cc(C(F)(F)F)cc(C(F)(F)F)c3)n(Cc3ccc(C(=O)NCCCNC(=O)Cn4cc(COc5ccc(N(C(=O)CCl)C(C(=O)NCCc6ccccc6)c6cccs6)cc5Cl)nn4)cc3)c2-c2ccc(OC)cc2)cc1` (stereo not drawn) [GDAz-7, 4-((2-(3,5-bis(trifluoromethyl)phenyl)-4,5-bis(4-methoxyphenyl)-1H-imidazol-1-yl)methyl)-N-(3-(2-(4-((2-chloro-4-(2-chloro-N-(2-oxo-2-(phenethylamino)-1-(thiophen-2-yl)ethyl)acetamido)phenoxy)methyl)-1H-1,2,3-triazol-1-yl)acetamido)propyl)benzamide], 0.53 ± 0.07 µM; with `COc1ccc(-c2nc(-c3cc(C(F)(F)F)cc(C(F)(F)F)c3)n(Cc3ccc(C(=O)NCCCCNC(=O)Cn4cc(COc5ccc(N(C(=O)CCl)C(C(=O)NCCc6ccccc6)c6cccs6)cc5Cl)nn4)cc3)c2-c2ccc(OC)cc2)cc1` (stereo not drawn) [GDAz-8, 4-((2-(3,5-bis(trifluoromethyl)phenyl)-4,5-bis(4-methoxyphenyl)-1H-imidazol-1-yl)methyl)-N-(4-(2-(4-((2-chloro-4-(2-chloro-N-(2-oxo-2-(phenethylamino)-1-(thiophen-2-yl)ethyl)acetamido)phenoxy)methyl)-1H-1,2,3-triazol-1-yl)acetamido)butyl)benzamide], 0.13 ± 0.04 µM. For `COc1ccc(-c2nc(-c3cc(C(F)(F)F)cc(C(F)(F)F)c3)n(Cc3ccc(C(=O)NCCCCCNC(=O)Cn4cc(COc5ccc(N(C(=O)CCl)C(C(=O)NCCc6ccccc6)c6cccs6)cc5Cl)nn4)cc3)c2-c2ccc(OC)cc2)cc1` (stereo not drawn) [GDAz-9, 4-((2-(3,5-bis(trifluoromethyl)phenyl)-4,5-bis(4-methoxyphenyl)-1H-imidazol-1-yl)methyl)-N-(5-(2-(4-((2-chloro-4-(2-chloro-N-(2-oxo-2-(phenethylamino)-1-(thiophen-2-yl)ethyl)acetamido)phenoxy)methyl)-1H-1,2,3-triazol-1-yl)acetamido)pentyl)benzamide], the IC50 in the assay with HT1080 cells came out at 0.14 ± 0.02 µM. The same measure, in the same setting: for `COc1ccc(-c2nc(-c3cc(C(F)(F)F)cc(C(F)(F)F)c3)n(Cc3ccc(C(=O)NCCCCCCNC(=O)Cn4cc(COc5ccc(N(C(=O)CCl)C(C(=O)NCCc6ccccc6)c6cccs6)cc5Cl)nn4)cc3)c2-c2ccc(OC)cc2)cc1` (stereo not drawn) [GDAz-10, 4-((2-(3,5-bis(trifluoromethyl)phenyl)-4,5-bis(4-methoxyphenyl)-1H-imidazol-1-yl)methyl)-N-(6-(2-(4-((2-chloro-4-(2-chloro-N-(2-oxo-2-(phenethylamino)-1-(thiophen-2-yl)ethyl)acetamido)phenoxy)methyl)-1H-1,2,3-triazol-1-yl)acetamido)hexyl)benzamide] the value was more than 30 µM.

With `COc1ccc(-c2nc(-c3cc(C(F)(F)F)cc(C(F)(F)F)c3)n(Cc3ccc(C(=O)NCCOCCOCCOCCn4cc(COc5ccc(N(C(=O)CO)C(C(=O)NCCc6ccccc6)c6cccs6)cc5Cl)nn4)cc3)c2-c2ccc(OC)cc2)cc1` (stereo not drawn) [GDAz-OH], the “GPX4 degradation by negative control compounds” value on GPX4 (HT1080 cells, 24 h, tested concentrations (Figure 4A)) is “none of the compounds effectively triggered GPX4 degradation”.

With `COc1ccc(-c2nc(-c3ccc(OCc4cn(CCOCCOCCOCCNC(=O)CCCC[C@@H]5SC[C@@H]6NC(=O)N[C@@H]65)nn4)cc3)n(Cc3ccc(C(=O)NCCOCCOCCOCCn4cc(COc5ccc(N(C(=O)CCl)C(C(=O)NCCc6ccccc6)c6cccs6)cc5Cl)nn4)cc3)c2-c2ccc(OC)cc2)cc1` (stereo partly drawn) [GDAz-biotin], the “GPX4 degradation activity of the probe” value on GPX4 (HT1080 cells, 24 h, concentration over 5 µM) is listed as “considerable GPX4 degradation activity”. In the case of `NS(=O)(=O)OC[C@@H]1C[C@@H](n2ccc3c(N[C@H]4CCc5ccccc54)ncnc32)C[C@@H]1O` [MLN4924, reference compound], on GPX4 (HT-1080, HT1080 cells, MLN4924 2.5 µM alone, read-out: GPX4 % of control), the remaining activity at 2.5 µM is 96%.

Usually IC50 stands for the concentration that inhibits the measured activity by half.
